Laboratory results published in patent US11497731B2, “β-lactamase inhibitor” (NATIONAL UNIVERSITY CORPORATION TOKAI NATIONAL HIGHER …, priority 2018, dated 2022).
In brackets after ≈: the same amount, converted by molar mass. Read-outs that look alike come from different tables or passages of the source.

Key:
NDM-1 = NDM-1 (Klebsiella pneumoniae, UniProt C7C422); experiment: Inhibition constant (Ki) measurement test, NDM-1; type: biochemical
Method: (§1) The inhibition constant (Ki) measurement test was performed in the following manner. The inhibition constant (Ki) was measured using various metallo-β-lactamases (final concentration: 10 nM). The imipenem decomposition activity (Δabs/min) at each point under the conditions of absorbance: 298 nm and temperature: 30° C. was measured by varying the concentration of imipenem as a substrate and the concentrations of test substances (compounds A to E) as inhibitors. Each measured value was fitted to the Lineweaver-Burk plot equation to calculate Ki.
(§2) The test was performed in the same manner as in Test Example 6, except that X2a, X2b, X2c, X2d, X3a, and X4 were used as test substances (inhibitors).

IMP-1 = IMP-1 (Serratia marcescens, UniProt P52699); experiment: Inhibition constant (Ki) measurement test, IMP-1; type: biochemical
Method: as §1, §2

[1] = tested on: β-lactamase-producing bacteria; experiment: Drug susceptibility tests, summary statements over all strains; type: cell-based, E. coli; conditions: addition of the compound
Method: (§3) Plates for drug susceptibility test measurement were prepared by using 96- or 384-well U-bottom plates, a Mueller-Hinton liquid medium, and antimicrobial drugs (ceftazidime (CAZ), imipenem (IPM), meropenem (MPM), doripenem (DPM), and biapenem (BPM)). A 1/2 antimicrobial drug dilution series was made up to well 11 of, for example, a 96-well U-bottom plate so that the leftmost well 1 of row A contained an antimicrobial drug at the maximum concentration, the antimicrobial drug concentration in well 2 to the right of well 1 was 1/2 of the maximum concentration, the antimicrobial drug concentration in well 3 to the right of well 2 was 1/4 of the maximum concentration, and so on. […] An antimicrobial drug dilution series was made in each of rows B and C in the same manner as in row A. Further, 10 μg/mL and 50 μg/mL of a test substance (compound A) were added to row B and row C, respectively (FIG. 1).
(§4) Bacteria into which a plasmid encoding a class B β-lactamase (metallo-β-lactamase (MBL): NDM-1, or VIM-2) was introduced (pBCSK (+)/E. coli DH5a) were used as test bacteria. The test bacteria were adjusted to 10^8 cfu/mL with a Mueller-Hinton medium. Further, the test bacteria were diluted 10-fold with a Mueller-Hinton medium (10^7 cfu/mL). 5 μl of the test bacteria was collected and inoculated into the plates for drug susceptibility test measurement. After overnight culture at 35° C., the growth of the test bacteria was visually checked. The concentration of the antimicrobial drug in a well containing the lowest concentration of the antimicrobial drug among the wells in which no growth of the test bacteria was confirmed was defined as the minimal inhibitory concentration value (FIG. 1).

VIM-2 = VIM-2 (Escherichia coli, UniProt Q5U7L7); experiment: Inhibition constant (Ki) measurement test, VIM-2; type: biochemical
Method: as §1, §2

[2] = tested on: bacteria (K. pneumoniae) in which a plasmid encoding NDM and VIM was introduced; experiment: Mouse abdominal infection model, K. pneumoniae NDM and VIM strain; type: in vivo, mice; conditions: antimicrobial drug 2 mg/kg or 8 mg/kg, test substance 10 mg/kg
Method: The laboratory strain grown overnight on a Mueller-Hinton agar medium was scraped with a sterile swab, suspended in physiological saline, adjusted to 2-5×10^8 CFU/mL, and mixed with an equal amount of a 10% mucin solution (1-2.5×10^8 CFU/mL) to prepare a bacterial liquid. Mice (Crl:CD1(ICR), male, 4 weeks old (Charles River Laboratories Japan, Inc.)) acclimated for 4 days after arrival were weighed, and then infected by intraperitoneal administration of 250 μL of the prepared bacterial liquid per mouse. An antimicrobial drug (meropenem trihydrate (WAKO 137-15674)) and the test substance were dissolved in physiological saline. A first intraperitoneal administration of the antimicrobial drug (0.2 mg/kg) and/or the test substance (100 mg/kg) was performed 1 hour after infection. A second administration was performed 3 hours after infection, in the same manner as the first administration (up to this point, day 0).
The animal study was performed in the same manner as in Test Example 12, except that in addition to a strain of Escherichia coli in which a plasmid encoding a class B lactamase (IMP-1) was introduced, bacteria (K. pneumoniae) in which a plasmid encoding NDM and VIM was introduced were used as a laboratory strain, compound I was administered as a test substance, […], and the dosage of the test substance was 10 mg/kg. […]

[3] = tested on: bacteria into which a plasmid encoding NDM-1 was introduced (pBCSK (+)/E. coli DH5a); experiment: Drug susceptibility test (MIC), NDM-1-producing strain; type: cell-based; conditions: for Meropenem MIC NDM-1-producing strain: MIC of meropenem with inhibitor 10 μg/mL; for MIC: Escherichia coli
Method: as §3, §4
(§5) The drug susceptibility test was performed in the same manner as in Test Example 1, except that compounds A to C and E to I were used as test substances.
(§6) The test was performed in the same manner as in Test Example 1, except that X2a, X2b, X2c, X2d, X3a, and X4 were used as test substances (inhibitors). The inhibitor concentration was 10 μg/mL.

[4] = tested on: bacteria into which a plasmid encoding IMP-1 was introduced (pBCSK (+)/E. coli DH5a); experiment: Drug susceptibility test (MIC), IMP-1-producing strain; type: cell-based; conditions: for Meropenem MIC IMP1-producing strain: MIC of meropenem with inhibitor 10 μg/mL; for MIC: Escherichia coli
β-lactamase = experiment: Inhibition constant (Ki) tests, summary statements over all enzymes; type: biochemical
Method: as §1, §2

[5] = tested on: bacteria into which a plasmid encoding VIM-2 was introduced (pBCSK (+)/E. coli DH5a); experiment: Drug susceptibility test (MIC), VIM-2-producing strain; type: cell-based; conditions: for Ceftazidime MIC VIM-2-producing strain: MIC of ceftazidime with inhibitor 10 μg/mL; for MIC: Escherichia coli
Method: as §3, §4, §5, §6

[6] = molecular target: metallo-β-lactamase (IMP-1) (Serratia marcescens, UniProt P52699); experiment: Enzyme activity measurement test (imipenem decomposition); type: biochemical
Method: A metallo-β-lactamase (IMP-1) (final concentration: 10 nM), and imipenem (final concentration: 100 μM) as a substrate were used. The imipenem decomposition activity (Dabs/min) at each point under the conditions of absorbance: 298 nm and temperature: 30° C. was measured by varying the concentrations of test substances (compounds Nos. 9-7, 9-8, and 9-9) as inhibitors (0 μM, 10 μM, and 100 μM). The activity when no test substance was added was defined as 100%, and the relative activity value when each test substance was individually added was calculated.

[7] = tested on: Empty vector (no class B lactamase produced), pBCSK (+)/E. coli DH5a; experiment: Drug susceptibility test (MIC), empty vector strain; type: cell-based; conditions: Escherichia coli
[8] = Test Example 11, same manner as Test Example 6, read-out: Enzymatic Inhibition Effect Ki NDM-1
[9] = Test Example 11, same manner as Test Example 6, read-out: Enzymatic Inhibition Effect Ki IMP-1
[10] = Test Example 11, same manner as Test Example 6, read-out: Enzymatic Inhibition Effect Ki VIM-2
[11] = imipenem substrate, enzyme 10 nM, 30° C., Lineweaver-Burk, read-out: Inhibition constant Ki NDM-1
[12] = imipenem substrate, enzyme 10 nM, 30° C., Lineweaver-Burk, read-out: Inhibition constant Ki IMP-1
[13] = imipenem substrate, enzyme 10 nM, 30° C., Lineweaver-Burk, read-out: Inhibition constant Ki VIM-2
[14] = meropenem alone, no test substance added, Table 2

Chain of metallo-β-lactamase (IMP-1) (P52699 19-246, looked up, species assumed): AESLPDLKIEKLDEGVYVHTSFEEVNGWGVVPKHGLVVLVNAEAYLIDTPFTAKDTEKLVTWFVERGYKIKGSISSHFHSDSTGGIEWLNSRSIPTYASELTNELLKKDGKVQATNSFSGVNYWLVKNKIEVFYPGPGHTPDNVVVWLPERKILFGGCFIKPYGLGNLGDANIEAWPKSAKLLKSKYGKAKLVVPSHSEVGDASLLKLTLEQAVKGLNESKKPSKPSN
Chain of IMP-1 (P52699 19-246, looked up, species assumed): as above
Chain of NDM-1 (C7C422 29-270, looked up, species assumed): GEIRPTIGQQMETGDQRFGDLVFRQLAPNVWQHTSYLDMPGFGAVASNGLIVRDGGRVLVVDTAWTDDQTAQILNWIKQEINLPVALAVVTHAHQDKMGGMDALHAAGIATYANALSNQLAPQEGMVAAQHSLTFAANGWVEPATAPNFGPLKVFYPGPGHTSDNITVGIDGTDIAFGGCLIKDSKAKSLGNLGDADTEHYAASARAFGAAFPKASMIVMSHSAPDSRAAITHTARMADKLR

SMILES	Ki (NDM-1; [8])	Ki (IMP-1; [9])	effect on MICs of the antimicrobial drugs (statement on Tables 1, 2, 4) [1]	Ki (VIM-2; [10])	Meropenem MIC NDM-1-producing strain [3]	Meropenem MIC IMP1-producing strain [4]	β-lactamase activity inhibition (statement on Tables 2, 5) (β-lactamase)	Ceftazidime MIC VIM-2-producing strain [5]	Ki (NDM-1; [11])	Ki (IMP-1; [12])	Ki (VIM-2; [13])	other results
CCc1c(S(N)(=O)=O)c(C(=O)O)c(-c2ccccc2)n1C [Compound X2d]	0.08 µM	0.11 µM	decreases the MICs	0.033 µM	0.0625 mg/L	0.031 mg/L	inhibits β-lactamase activity	1 mg/L				survival rate (FIG. 13) [2]: notably improved
CCc1c(C(=O)O)c(S(N)(=O)=O)c(CC)n1N [Compound X3a]	22.1 µM	21.4 µM	decreases the MICs	1.97 µM	0.5 mg/L	0.031 mg/L	inhibits β-lactamase activity	4 mg/L				
Cc1c(C(=O)O)c(S(N)(=O)=O)c(C)n1C [Compound E]									9.08 µM	1.23 µM	0.42 µM	
NS(=O)(=O)c1sccc1C(=O)O [B]									7.68 µM	34.1 µM	15.5 µM	
CCc1ccccc1CNS(=O)(=O)c1c(C)oc(C)c1C(=O)O [9-9]												β-lactamase activity inhibition (statement on Table 3) [6]: inhibits β-lactamase activity
NS(=O)(=O)c1sc(Cl)cc1C(=O)O [C]									19.3 µM	19.1 µM	2.29 µM	
CCc1c(C(=O)O)c(S(N)(=O)=O)c(C(C)C)n1C [Compound X4]	4.3 µM	0.9 µM	decreases the MICs	0.017 µM	0.5 mg/L	0.031 mg/L	inhibits β-lactamase activity	1 mg/L				
CC(C)(O/N=C(\C(=O)N[C@@H]1C(=O)N2C(C(=O)[O-])=C(C[n+]3ccccc3)CS[C@H]12)c1csc(N)n1)C(=O)O [CAZ, ceftazidime, reference compound]												MIC ([7]; read-out: MIC CAZ): 0.25 mg/L (≈ 0.457 µM); MIC ([3]; read-out: MIC CAZ): > 1020 mg/L; MIC ([4]; read-out: MIC CAZ): 256 mg/L (≈ 468 µM); MIC ([5]; read-out: Ceftazidime MIC VIM-2-producing strain, No inhibitor): 16 mg/L (≈ 29.3 µM); MIC ([5]; read-out: MIC CAZ): 4 mg/L (≈ 7.32 µM); MIC VIM-2 ceftazidime, None ([5]; ceftazidime alone, no test substance added, Table 2): 16 mg I^−1
Cc1oc(C)c(S(=O)(=O)N2CC3CCCC3C2)c1C(=O)O (centres unmarked) [9-7]												β-lactamase activity inhibition (statement on Table 3) [6]: inhibits β-lactamase activity
Cc1oc(C)c(S(=O)(=O)N2CCC(C)(C)C2)c1C(=O)O [9-8]												β-lactamase activity inhibition (statement on Table 3) [6]: inhibits β-lactamase activity
CCc1c(C(=O)O)c(S(N)(=O)=O)c(-c2ccccc2)n1C [Compound X2c]	1.5 µM	1.24 µM	decreases the MICs	0.019 µM	0.5 mg/L	0.031 mg/L	inhibits β-lactamase activity	1 mg/L				
CCc1c(C(=O)O)c(S(N)(=O)=O)c(C)n1C [Compound X2a]	1.83 µM	1.77 µM	decreases the MICs	0.023 µM	0.0625 mg/L	0.031 mg/L	inhibits β-lactamase activity	1 mg/L				
Cc1c(C(=O)O)c(S(N)(=O)=O)c(C)n1-c1ccccc1 [Compound D]									10.2 µM	7.51 µM	20.8 µM	
CCc1oc(CC)c(S(N)(=O)=O)c1C(=O)O [Compound F]									0.92 µM	0.3 µM	1.01 µM	
NS(=O)(=O)c1c(C2CCCC2)oc(C2CCCC2)c1C(=O)O [Compound H]									0.18 µM	1.27 µM	0.76 µM	
C[C@@H](O)[C@H]1C(=O)N2C(C(=O)O)=C(S[C@@H]3CN[C@H](C(=O)N(C)C)C3)[C@H](C)[C@H]12 [MPM, meropenem, reference compound]												MIC ([7]; read-out: MIC MPM): 0.016 mg/L (≈ 0.0417 µM); MIC ([3]; read-out: Meropenem MIC NDM-1-producing strain, No inhibitor): 4 mg/L (≈ 10.4 µM); MIC NDM-1 meropenem, None [3, 14]: 64 mg I^−1; MIC ([4]; read-out: MIC MPM): 0.5 mg/L (≈ 1.3 µM); MIC ([4]; read-out: Meropenem MIC IMP1-producing strain, No inhibitor): 2 mg/L (≈ 5.22 µM); MIC IMP-1 meropenem, None [4, 14]: 1 mg I^−1; MIC ([5]; read-out: MIC MPM): 0.063 mg/L (≈ 0.164 µM)
CCc1c(S(N)(=O)=O)c(C(=O)O)c(C)n1C [Compound X2b]	1.73 µM	0.98 µM	decreases the MICs	0.1 µM	0.0625 mg/L	0.031 mg/L	inhibits β-lactamase activity	1 mg/L				
CCCc1oc(CCC)c(S(N)(=O)=O)c1C(=O)O [Compound G]									0.29 µM	0.38 µM	0.46 µM	
